The text below walks through data of paper PMC10909772 (Saudi Pharmaceutical Journal : SPJ, 2024).

The structures appear in SMILES notation. Like-named read-outs stand apart in the source and are kept apart here.

Test [1] concerns the target T1, xanthine oxidase (Bos taurus, UniProt P80457). Briefly: Kinetics of xanthine oxidase inhibition. The test is classed as biochemical. The conditions noted are these: Lineweaver-Burk double reciprocal plots, xanthine as substrate.
Test [2] concerns the target T1, xanthine oxidase. As to the kind of experiment: Xanthine oxidase inhibitory assay. Format: biochemical.
For test [3], the target named is T1, xanthine oxidase. The note with it: cited from earlier work; for inhibition of the xanthine oxidase enzyme (in words): ref Mostafa et al., 2007.

T1 sequence (P80457 whole entry): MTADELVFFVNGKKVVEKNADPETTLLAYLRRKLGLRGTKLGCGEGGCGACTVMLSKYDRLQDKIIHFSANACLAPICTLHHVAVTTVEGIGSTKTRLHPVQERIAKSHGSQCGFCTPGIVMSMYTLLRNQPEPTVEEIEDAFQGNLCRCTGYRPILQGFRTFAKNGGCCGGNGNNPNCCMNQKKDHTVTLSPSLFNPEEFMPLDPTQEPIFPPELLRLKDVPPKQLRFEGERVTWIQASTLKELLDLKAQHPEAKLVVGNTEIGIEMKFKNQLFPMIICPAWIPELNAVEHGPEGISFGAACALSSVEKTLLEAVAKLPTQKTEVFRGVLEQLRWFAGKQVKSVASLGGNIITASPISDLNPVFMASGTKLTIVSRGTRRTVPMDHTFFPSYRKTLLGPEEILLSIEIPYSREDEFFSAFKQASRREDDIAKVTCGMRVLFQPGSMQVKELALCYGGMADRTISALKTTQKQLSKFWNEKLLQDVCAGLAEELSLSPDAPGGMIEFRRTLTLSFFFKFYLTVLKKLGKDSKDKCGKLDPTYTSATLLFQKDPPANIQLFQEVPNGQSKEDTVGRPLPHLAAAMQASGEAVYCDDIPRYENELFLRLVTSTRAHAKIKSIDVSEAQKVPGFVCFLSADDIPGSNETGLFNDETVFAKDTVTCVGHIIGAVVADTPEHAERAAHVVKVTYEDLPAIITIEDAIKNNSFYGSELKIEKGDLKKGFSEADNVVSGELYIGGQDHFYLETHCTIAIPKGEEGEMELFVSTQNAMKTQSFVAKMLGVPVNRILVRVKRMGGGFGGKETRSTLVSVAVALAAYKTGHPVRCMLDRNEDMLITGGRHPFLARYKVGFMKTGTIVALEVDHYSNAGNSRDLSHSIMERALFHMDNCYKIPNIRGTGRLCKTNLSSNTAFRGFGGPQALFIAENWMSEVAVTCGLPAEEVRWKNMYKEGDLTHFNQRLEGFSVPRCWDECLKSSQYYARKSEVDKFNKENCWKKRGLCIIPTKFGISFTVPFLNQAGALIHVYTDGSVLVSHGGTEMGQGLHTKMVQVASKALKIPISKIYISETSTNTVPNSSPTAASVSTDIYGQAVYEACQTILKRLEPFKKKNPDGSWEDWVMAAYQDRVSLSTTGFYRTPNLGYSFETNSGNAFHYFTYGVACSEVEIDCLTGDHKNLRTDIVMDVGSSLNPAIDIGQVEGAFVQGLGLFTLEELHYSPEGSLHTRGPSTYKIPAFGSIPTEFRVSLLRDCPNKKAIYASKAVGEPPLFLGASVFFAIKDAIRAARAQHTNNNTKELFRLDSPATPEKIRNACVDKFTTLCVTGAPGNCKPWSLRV

As for `Oc1ncnc2[nH]ncc12` [Allopurinol], the “type of inhibition” value in test [1] was “competitive”.

As for `COc1ccc(/C=C/C(=O)O)cc1` [Compound 3, trans-4-methoxycinnamic acid], the IC50 in test [2] is 26.3 ± 3.36 µM. The “type of inhibition” value in test [1] was “competitive”.

As to `O=C(O)/C=C/c1ccc(O)cc1` [Compound 5, p-coumaric acid], the IC50 in test [2] worked out at 23.3 ± 1.88 µM. Further, the “type of inhibition” value in test [1] is “competitive”.

Turning to `COc1ccc(CCO[C@@H]2O[C@H](CO[C@@H]3OC[C@H](O)[C@H](O)[C@H]3O)[C@@H](OC(=O)/C=C/c3ccc(O)c(OC)c3)[C@H](O[C@@H]3O[C@@H](C)[C@H](O)[C@@H](O)[C@H]3O)[C@H]2O)cc1O` [angoroside C], the “inhibition of the xanthine oxidase enzyme (in words)” value in test [3] is recorded as “moderate inhibitors”.

Regarding `O=c1cc(-c2ccc(O)cc2)oc2cc(O)cc(O)c12` [apigenin], the type of inhibition entry in test [3] (ref Lin et al., 2002) is listed as “competitive”.

With `O=C(O)/C=C/c1ccc(O)c(O)c1` [caffeic acid], in test [3] (ref Nguyen et al., 2006), the IC50 was 85.4 µM and the inhibition type result is “competitive”.

With `O=c1c(-c2ccc(O)cc2)coc2cc(O)cc(O)c12` [genistein], the type of inhibition result in test [3] (ref Lin et al., 2002) is “competitive”.

On to `COc1ccc(CCO[C@@H]2O[C@H](CO)[C@@H](OC(=O)/C=C/c3ccc(O)c(OC)c3)[C@H](O[C@@H]3O[C@@H](C)[C@H](O)[C@@H](O)[C@H]3O[C@@H]3O[C@H](CO)[C@@H](O)[C@H](O)[C@H]3O)[C@H]2O)cc1O` [incanoside D], for which the “inhibition of the xanthine oxidase enzyme (in words)” value in test [3] is “moderate inhibitors”.

As to `O=c1cc(-c2ccc(O)c(O)c2)oc2cc(O)cc(O)c12` [luteolin], the Ki in test [3] (read-out: inhibition constant (Ki), ref Yan et al., 2013) is 2.38 µM. In test [3] (ref Yan et al., 2013), the IC50 was 4.79 µM and the type of inhibition entry is given as “competitive”.

Take `COC(=O)/C=C/c1ccc(O)c(O)c1` [methyl caffeate]: in test [3] (ref Nguyen et al., 2006), the IC50 is 12.3 µM and the inhibition type entry was “competitive”.

Turning to `O=c1c(O)c(-c2cc(O)c(O)c(O)c2)oc2cc(O)cc(O)c12` [myricetin], in test [3] (ref Lin et al., 2002), the type of inhibition result is “competitive”.

As for `O=c1c(O)c(-c2ccc(O)c(O)c2)oc2cc(O)cc(O)c12` [quercetin], the type of inhibition result in test [3] (ref Lin et al., 2002) was “competitive”.

By IC50 is commonly meant the concentration needed to halve the response being measured. By Ki is commonly meant the equilibrium dissociation constant of an inhibitor or competing ligand from its target.
